Laboratory results as given in ChEMBL document CHEMBL1255489, “Low prevalence of fks1 hot spot 1 mutations in a worldwide collection of Candida strains” (2010).
In brackets after ≈: the same amount, converted by molar mass. Starred links: 1 amine or outer side, 2 acyl side, 3 side chain; linkers in the order of their positions; H or OH if unused. Positions of bridges follow the written chain, without caps; N, C: chain ends. Non-standard residues stand in square brackets, D forms with d. Residues, ends and D or L forms follow the SMILES beside them. *: point of attachment. hTyr(3S-OH,4S-OH,3'-OSO3H) = N[C@H](C(=O)O)[C@H](O)[C@@H](O)c1ccc(O)c(OS(=O)(=O)O)c1; pTerphenylCO(4''-OnC5H11) = CCCCCOc1ccc(-c2ccc(-c3ccc(C(=O)*)cc3)cc2)cc1; Orn(4R-OH,5R-OH) = O=C([C@H](C[C@@H](O)[C@@H](O)N[*:3])N[*:1])[*:2]; hTyr(3S-OH,4S-OH) = N[C@H](C(=O)O)[C@H](O)[C@@H](O)c1ccc(O)cc1; Pro(3S-OH,4S-Me) = C[C@H]1CN[C@H](C(=O)O)[C@H]1O; X1 = CCCCCOc1ccc(-c2cc(-c3ccc(C(=O)*)cc3)no2)cc1; Gln(3R-OH) = NC(=O)C[C@@H](O)[C@H](N)C(=O)O; Hyp = O=C(O)[C@@H]1C[C@@H](O)CN1

Experiments:
Assay type in all cases: functional
Nakaseomyces glabratus [1] = test: Antifungal activity against Candida glabrata isolate 4720 expressing fks2 S645P mutant after 24 to 48 hrs by broth microdilution method
Nakaseomyces glabratus [2] = test: Antifungal activity against Candida glabrata isolate 4707 expressing fks2 S645P mutant after 24 to 48 hrs by broth microdilution method
Pichia kudriavzevii [3] = test: Antifungal activity against Candida krusei after 24 to 48 hrs by broth microdilution method
Candida tropicalis [4] = test: Antifungal activity against Candida tropicalis isolate 4780 expressing fks1 F641S mutant after 24 to 48 hrs by broth microdilution method
Candida albicans [5] = test: Antifungal activity against Candida albicans isolate 4700 expressing fks1 F641Y mutant after 24 to 48 hrs by broth microdilution method
Candida tropicalis [6] = test: Antifungal activity against Candida tropicalis isolate 4748 expressing fks1 F641S mutant after 24 to 48 hrs by broth microdilution method
Nakaseomyces glabratus [7] = test: Antifungal activity against Candida glabrata isolate 4708 expressing fks1 S645P mutant after 24 to 48 hrs by broth microdilution method
Candida albicans [8] = test: Antifungal activity against Candida albicans after 24 to 48 hrs by broth microdilution method
Nakaseomyces glabratus [9] = test: Antifungal activity against Candida glabrata isolate 4690 expressing fks2 L644W mutant after 24 to 48 hrs by broth microdilution method
Candida albicans [10] = test: Antifungal activity against Candida albicans expressing fks1 F641S mutant after 24 to 48 hrs by broth microdilution method
Nakaseomyces glabratus [11] = test: Antifungal activity against Candida glabrata after 24 to 48 hrs by broth microdilution method
Pichia kudriavzevii [12] = test: Antifungal activity against Candida krusei ATCC 6258 expressing fks1 L644W mutant by EUCAST method
Candida = test: Antifungal activity against Candida species after 24 to 48 hrs by broth microdilution method
Candida tropicalis [13] = test: Antifungal activity against Candida tropicalis expressing fks1 L644W mutant by EUCAST method

## CCCCCOc1ccc(-c2ccc(-c3ccc(C(=O)N[C@H]4C[C@@H](O)[C@@H](O)NC(=O)[C@@H]5[C@@H](O)[C@@H](C)CN5C(=O)[C@H]([C@@H](C)O)NC(=O)[C@H]([C@H](O)[C@@H](O)c5ccc(O)cc5)NC(=O)[C@@H]5C[C@@H](O)CN5C(=O)[C@H]([C@@H](C)O)NC4=O)cc3)cc2)cc1 [ANIDULAFUNGIN] ({pTerphenylCO(4''-OnC5H11)}-[Orn(4R-OH,5R-OH)]T[Hyp][hTyr(3S-OH,4S-OH)]T[Pro(3S-OH,4S-Me)]; lactam 1-C)
Nakaseomyces glabratus [1]
  MIC: 4 µg/mL (≈ 3.51 µM)
Nakaseomyces glabratus [2]
  MIC: 4 µg/mL (≈ 3.51 µM)
Pichia kudriavzevii [3]
  MIC: 0.06 µg/mL (≈ 0.0526 µM)
Candida tropicalis [4]
  MIC: 1 µg/mL (≈ 0.877 µM)
Candida albicans [5]
  MIC: 0.12 µg/mL (≈ 0.105 µM)
Candida tropicalis [6]
  MIC: 1 µg/mL (≈ 0.877 µM)
Nakaseomyces glabratus [7]
  MIC: 4 µg/mL (≈ 3.51 µM)
Candida albicans [8]
  MIC: ≤ 0.12 µg/mL
Nakaseomyces glabratus [9]
  MIC: 0.12 µg/mL (≈ 0.105 µM)
Candida albicans [10]
  MIC: 0.12 µg/mL (≈ 0.105 µM)
Nakaseomyces glabratus [11]
  MIC: ≤ 0.12 µg/mL

## CCCCCOc1ccc(-c2cc(-c3ccc(C(=O)N[C@H]4C[C@@H](O)[C@@H](O)NC(=O)[C@@H]5[C@@H](O)[C@@H](C)CN5C(=O)[C@H]([C@H](O)CC(N)=O)NC(=O)[C@H]([C@H](O)[C@@H](O)c5ccc(O)c(OS(=O)(=O)O)c5)NC(=O)[C@@H]5C[C@@H](O)CN5C(=O)[C@H]([C@@H](C)O)NC4=O)cc3)no2)cc1 [MICAFUNGIN] (X1-[Orn(4R-OH,5R-OH)]T[Hyp][hTyr(3S-OH,4S-OH,3'-OSO3H)][Gln(3R-OH)][Pro(3S-OH,4S-Me)]; lactam 1-C)
Nakaseomyces glabratus [1]
  MIC: 4 µg/mL (≈ 3.15 µM)
Nakaseomyces glabratus [2]
  MIC: 2 µg/mL (≈ 1.57 µM)
Candida tropicalis [4]
  MIC: 0.5 µg/mL (≈ 0.394 µM)
Candida albicans [5]
  MIC: 0.25 µg/mL (≈ 0.197 µM)
Candida tropicalis [6]
  MIC: 0.5 µg/mL (≈ 0.394 µM)
Nakaseomyces glabratus [7]
  MIC: 4 µg/mL (≈ 3.15 µM)
Candida albicans [8]
  MIC: ≤ 0.06 µg/mL
Nakaseomyces glabratus [9]
  MIC: 0.06 µg/mL (≈ 0.0472 µM)
Candida albicans [10]
  MIC: 0.5 µg/mL (≈ 0.394 µM)
Nakaseomyces glabratus [11]
  MIC: ≤ 0.06 µg/mL

## CC[C@H](C)C[C@H](C)CCCCCCCCC(=O)N[C@H]1C[C@@H](O)[C@@H](NCCN)NC(=O)[C@@H]2[C@@H](O)CCN2C(=O)[C@H]([C@H](O)CCN)NC(=O)[C@H]([C@H](O)[C@@H](O)c2ccc(O)cc2)NC(=O)[C@@H]2C[C@@H](O)CN2C(=O)[C@H]([C@@H](C)O)NC1=O [CASPOFUNGIN]
Nakaseomyces glabratus [1]
  MIC: ≥ 8 µg/mL
Nakaseomyces glabratus [2]
  MIC: 8 µg/mL (≈ 7.32 µM)
Pichia kudriavzevii [3]
  MIC: 1 µg/mL (≈ 0.915 µM)
Candida tropicalis [4]
  MIC: 4 µg/mL (≈ 3.66 µM)
Candida albicans [5]
  MIC: 1 µg/mL (≈ 0.915 µM)
Candida tropicalis [6]
  MIC: 4 µg/mL (≈ 3.66 µM)
Nakaseomyces glabratus [7]
  MIC: ≥ 8 µg/mL
Pichia kudriavzevii [12]
  MIC: 8 µg/mL (≈ 7.32 µM)
Candida
  MIC: ≤ 0.008 µg/mL
Candida albicans [8]
  MIC: ≤ 0.06 µg/mL
Candida tropicalis [13]
  MIC: 1 µg/mL (≈ 0.915 µM)
Nakaseomyces glabratus [9]
  MIC: 0.25 µg/mL (≈ 0.229 µM)
Candida albicans [10]
  MIC: 2 µg/mL (≈ 1.83 µM)
Nakaseomyces glabratus [11]
  MIC: ≤ 0.06 µg/mL
